# Results from patent US7264947B2, “Activity dependent neurotrophic factor III (ADNF III)” (United States of America, as represented by the Secretary …, priority 1997, dated 2007).
# Several values for one entry are separate records, joined by “and”; a condition that tells them apart may be missing. Equal entries are not always repeated. Entries after “also recorded” stand apart in the source; their conditions may differ.
# Tests used:
# [1] = tested on: cerebral cortical cultures; test: neuroprotection against β-amyloid peptide (25-35) neurotoxicity in cerebral cortical cultures; assay type: cell-based, newborn rats; details: 25 μM β-amyloid fragment 25-35, five days; P<0.01
# [2] = structure-activity studies of ADNF III peptides (FIGS. 7A and 7B); assay type: cell-based
# [3] = tested on: cerebral cortical cultures; assay type: cell-based, newborn rats; details: 1 μM tetrodotoxin, five days; P<0.01
# [4] = tested on: choline acetyl transferase; test: brain ChAT (choline acetyl transferase) activity in ApoE-deficient mice; assay type: in vivo; details: daily subcutaneous injections from birth to 14 days, measured at 21 days
# Protocol: The graph depicts incorporation of radio-labeled choline into acetylcholine. Experiments were conducted as described. Apo-E deficient mice are designated: ApoE; 100% activity in the control (C57B6) mice indicated 669758.4 pmole/mg protein/min. As the experiments were repeated 3-5 times the results were standardized against the control calibrated at 100% per each experiment. ApoE-deficient mice daily injected with peptides are designated ADNF-14, ADNF-9, and NAP, respectively.
# ChAT activity was measured according to published procedures (Formum et al., Neurochem. 24:407-409 (1975)). Brains were homogenized with 10 volumes of 50 mM phosphate buffer containing 300 mM NaCl, 20 mM EDTA, and 0.5% triton. The homogenates were centrifuged at 12,000×g for 15 min., and […] of supernatant was mixed with […] of a solution of […] ^14C-acetyl CoA ([…] NEN), 20 mM acetylcholine, 1.6 mM choline chloride, 0.25 mM eserine, and phosphate buffer. Incubation was 15 min. at 37° C. The reaction was terminated and radioactivity was measured in a beta-counter. • 21. Apolipoprotein E (ApoE) Deficient Mouse Model
# ApoE knockout mice and normal controls were a gift from the late Prof. Shlomo Eisenberg of Tel Aviv University, originally provided by Dr. J. L. Breslow (Plump et al., Cell 71:343-353 (1992)). The ApoE knockout mice were obtained from embryonic stem cells OLA 129 in C57B6×FVB mice (as described). Age-matched controls were inbred C57B6 mice. Groups of mouse pups were treated from birth until the age of 14 days. Daily subcutaneous injections included: […] saline (days 1 through 4), […] saline (days 5 through 10) and […] saline (days 11-14).
# ChAT activity was measured according to published procedures (Formum et al., Neurochem. 24:407-409 (1975)).
substance,measurement,setting,value
Asn-Ala-Pro-Val-Ser-Ile-Pro-Gln [NAP],concentrations of significant neuroprotection against β-amyloid,[1],10^−16 M and 10^−15 M
same,relative activity in structure-activity studies,[2],most active peptide
same,peak optimum concentrations,"[2]; two peaks, listed as NAPVSIPQ",10^−16-10^−14 M and 10^−11-10^−10 M
same,concentrations of significant neuroprotection against tetrodotoxin,[3],10^−18-10^−14 M
same,brain ChAT activity compared with inbred C57B6 mice,[4],not significantly different; also recorded: indistinguishable from controls
same,brain ChAT activity compared with vehicle-treated or untreated ApoE-deficient mice,[4],significantly improved
